Test results from patent publication US4897254A, “Radioactive compositions for the treatment of calcific tumors” (priority 1987, dated 1990).

What was measured:
[1] = two-hour rat biodistribution after tail vein injection (NaI scintillation counting of dissected tissues); details: in vivo
Excerpt: Quantitative biodistributions were obtained by injecting 50-100 microliters of the composition into the tail vein of unanesthetized male Sprague Dawley rats. The rats were then placed in cages lined with absorbent paper in order to collect all urine excreted prior to sacrifice. After a given period of time, the rats were sacrificed by cervical dislocation and the various tissues dissected. The samples were then rinsed with saline, blotted dry on absorbent paper and weighed.

[2] = cited from earlier work
[3] = radionuclide; cited from earlier work
[4] = patients with metastatic bone lesions

In the case of “Sm-153-diethylenetriaminepentaacetic acid [Sm-153-DTPA]”, the “skeletal uptake (in words)” value [1] is reported as “low skeletal uptake”.
In the case of NC(c1ccc(O)c([131I])c1)(P(=O)(O)O)P(=O)(O)O [α-amino-(3-iodo-4-hydroxybenzylidene)diphosphonate], the possible metabolite ([2]; in vivo) is given as “iodide as one of the possible metabolites”.
In the case of “Sm-153-nitrilotriacetic acid [Sm-153-NTA]”, the “liver uptake (in words)” value [1] is reported as “high liver uptake”.
In the case of Strontium-89, the half-life [3] is listed as 50.4 days, the blood levels [2, 4] is listed as “high blood levels” and the “lesion to normal bone ratios” value [2, 4] is listed as “low lesion to normal bone ratios”.
